Data on two molecules can be found in PMC12549899 (Nature Communications, 2025).

Usually Hill coefficient stands for the slope factor of the fitted curve. What is called inhibition is the drop in the measured response relative to a control, in per cent.

pIC50: −log10 of the molar value. Where “and” joins values, the source holds several entries; their conditions need not be identical. Equal entries are not always repeated. Where two headings read alike, the source gives them in different places.

The assay addresses T1, DrOTOP1 I565W (Danio rerio, UniProt Q7ZWK8, I565W).
T1 construct: A previously generated codon-optimized full-length DrOTOP1[8]; (UniProt: Q7ZWK8) construct; expressed in transfected cells; host or cells: HEK-293 (CRL-1573, ATCC)
T1 sequence (Q7ZWK8 1-586 I565W): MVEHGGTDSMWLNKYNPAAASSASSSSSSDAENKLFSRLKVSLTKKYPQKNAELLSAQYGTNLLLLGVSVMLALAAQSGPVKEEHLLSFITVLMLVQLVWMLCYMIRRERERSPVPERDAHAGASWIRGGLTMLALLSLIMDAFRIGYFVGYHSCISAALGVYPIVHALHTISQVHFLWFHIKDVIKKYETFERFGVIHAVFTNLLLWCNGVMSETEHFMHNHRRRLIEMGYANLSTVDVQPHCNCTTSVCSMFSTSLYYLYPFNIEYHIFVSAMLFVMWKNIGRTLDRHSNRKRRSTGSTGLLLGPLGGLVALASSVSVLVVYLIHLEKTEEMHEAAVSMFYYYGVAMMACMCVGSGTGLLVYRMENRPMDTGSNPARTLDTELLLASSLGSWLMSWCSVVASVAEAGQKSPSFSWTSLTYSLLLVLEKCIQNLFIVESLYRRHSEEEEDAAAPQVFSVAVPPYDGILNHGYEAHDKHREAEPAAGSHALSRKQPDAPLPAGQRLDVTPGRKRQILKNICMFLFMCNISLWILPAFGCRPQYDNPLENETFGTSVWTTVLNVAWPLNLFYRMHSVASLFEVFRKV
The assay can be described thus: Whole-cell patch-clamp, inhibition of acid-evoked currents, DrOTOP1 I565W (C-domain pocket). In kind it is cell-based, zebrafish (Danio rerio). Also noted: key to inhibition of acid-evoked current, single cells: % inhibition = ((I2peak - I1)/I2peak)*100. Particulars: for LogAbsoluteIC50: concentration in uM. From the text: To experimentally verify whether C11 and C2.2 bind in the C-domain pocket as predicted, we used their docked poses to guide mutagenesis. The predicted interactions for C11 and C2.2 include π-stacking with F342 and Y422, potential H-bonding with Q542, N568, and R572 (Fig. 2J, K and Supplementary Fig. 5A), and hydrophobic packing. We generated single-residue mutants of these and other residues in DrOTOP1 that were expected to disrupt specific molecular interactions or to introduce a bulky tryptophan residue (W) to produce steric hindrance.
HEK-293 cells (CRL-1573, ATCC) were cultured in DMEM (Thermofisher 11995073) containing 10% fetal bovine serum (Life Technology 16000044) and Penicillin-Streptomycin (100 I.U./mL) and (100 µg/mL), respectively. Cells were transfected with WT DrOTOP1 or mutant DrOTOP1 channels in 35 mm petri dishes, with ~ 500 ng DNA and 2 μL TransIT-LT1 transfection reagent (Mirus Bio Corporation, Cat # MIR2300) following the manufacturer’s protocol. All constructs were subcloned into a pcDNA3.1 vector that adds an N-terminal fusion tag consisting of an octahistidine tag followed by eGFP, a Gly-Thr-Gly-Thr linker and a 3C protease cleavage site ([…]) followed by WT DrOTOP1, WT mOTOP1, WT hOTOP1, or mutated DrOTOP1. Point mutations were generated via In-Fusion Cloning (Takara) using single-stranded DNA primers generated through IDT and sequence confirmed by Sanger sequencing (GeneWiz).
Whole-cell patch-clamp recording was performed as previously described[6],[22],[25]. Recordings were made with an Axopatch 200B amplifier, digitized with a Digidata 1322a 16-bit data acquisition system, acquired with pClamp 8.2 and analyzed with Clampfit 10 (Molecular Devices). Recordings were sampled at 5 kHz and filtered at 1 kHz. Patch Pipettes with resistance of […] were fabricated from borosilicate glass, and only recordings with a giga-Ohm seal were used in analysis. Membrane potential was held at −80 mV for the duration of recordings. At the beginning of recordings and between, cells were washed with Tyrode’s solution (see below). Once a giga-Ohm seal was reached, cells were lifted and placed in front of microcapillary tubes controlled by a Fast-Step perfusion system (Warner Instruments) so that extracellular solutions could be rapidly exchanged during each experiment.
Standard Tyrode’s solution consisted of 145 mM NaCl, 5 mM KCl, MgCl2, 2 mM CaCl2, 20 mM D-Glucose, and 10 mM HEPES (for pH 7.4). All other extracellular patch-clamp solutions contained 160 mM NMDG-Cl, 2 mM CaCl2, and the following buffers: 10 mM HEPES (for pH 7.4), 10 mM MES (for pH 6.5-5.5), 10 mM CHES for pH 10, and 10 mM HomoPIPES for (pH 5.0). pH adjusted with HCl. When adding compounds to extracellular solutions, the concentration of DMSO in solution was never higher than 0.3%. The pipette contained intracellular solution made up of 120 mM Cs-aspartate, 15 mM CsCl, 2 mM Mg-ATP, 5 mM EGTA, 2.4 mM CaCl2 (100 nM free Ca^2+), and 10 mM HEPES with a pH of 7.3. All extracellular solution osmolarity was adjusted to 300 mOsm and intracellular osmolarity was adjusted to 290 mOsm.
All data are presented as mean ± SEM unless otherwise noted, and each data point represents an independent replicant. Inhibition of compounds was quantified as ((I2peak-I1)/(I2peak))*100, where I1 is the current immediately before wash-off and I2peak is the maximum recovered current (Supplementary Fig. 2). Hill coefficients were determined by the following equation: Y = Bmax*X^h/(Kd^h + X^h). Absolute IC50 was determined by the following equation: Fifty = (Top + Baseline)/2 Y = Bottom + (Top-Bottom)/(1 + ((Top-Bottom)/(Fifty-Bottom) − 1)*(AbsoluteIC50/X)^HillSlope). pH50 curves (Fig. 6G inset) were determined using the following equation: Y = Bottom + (Top-Bottom)/(1 + (EC/X)^HillSlope) where EC = EC50 control. Graphs with electrophysiological data were made in Graphpad Prism 10 (Graphpad Software Inc). […]
Background: The patch-clamp technique gives a direct electrical read-out from membranes.

For `C=C(C)COc1ccccc1NC(=O)c1nc[nH]c1C` [C2.2], the Hill coefficient is 1.22 and the “Shift of IC50 compared with WT” value is reported as ~ 10 fold. Also, the “inhibition of acid-evoked current, single cells” value (shortened to “inhibition … single cells”) (C2.2 3 uM, Supp. Fig 5G) is 6.531 and 5.9632 and 6.805 and 3.704. Besides, under “C2.2 3 uM, Supp. Fig 5G, read-out: inhibition of acid-evoked current, single cells”, the inhibition at 3 µM was determined as 5.54%. The “inhibition … single cells” value (C2.2 10 uM, Supp. Fig 5G) is 8.1748 and 9.4295 and 12.133 and 10.612. For the same molecule, for the setting “C2.2 10 uM, Supp. Fig 5G, read-out: inhibition of acid-evoked current, single cells”, the inhibition at 10 µM is 8.99%. In addition, the “inhibition … single cells” value (C2.2 30 uM, Supp. Fig 5G) is 15.885 and 20.063 and 20.497 and 20.983 and 13.0981 and 19.6998. For the setting “C2.2 30 uM, Supp. Fig 5G, read-out: inhibition of acid-evoked current, single cells”, the inhibition at 30 µM worked out at 23.3%. Besides, the inhibition at 100 µM (C2.2 100 uM, Supp. Fig 5G, read-out: inhibition of acid-evoked current, single cells) stood at 63.2%. Besides, for the setting “C2.2 300 uM, Supp. Fig 5G, read-out: inhibition of acid-evoked current, single cells”, the inhibition at 300 µM is 78.2%. In addition, for the setting “best-fit, Supp. Fig 5G”, the HillSlope came to 1.217 and the LogAbsoluteIC50 is given as 1.918. For the same molecule, the pIC50 (best-fit, Top 100, Bottom 0, Supp. Fig 5G, read-out: AbsoluteIC50) is 4.08. The pIC50 (pH 5.5, read-out: IC50) is 4.09 and 4.08.

Turning to `O=C(/C(=N\O)c1ccccc1)c1ccccc1` [C11, benzil monoxime], the Hill coefficient was found to be 1.57 and the “Shift of IC50 compared with WT” value is reported as ~ 2.5 fold. Further, for the setting “C11 10 uM, Supp. Fig 5D”, the “inhibition … single cells” value was 2.087 and 1.672. Besides, the inhibition at 10 µM (C11 10 uM, Supp. Fig 5D, read-out: inhibition of acid-evoked current, single cells) was 1.63%. The “inhibition … single cells” value (C11 30 uM, Supp. Fig 5D) was 9.463 and 7.048 and 7.021. Besides, where the note is “C11 30 uM, Supp. Fig 5D, read-out: inhibition of acid-evoked current, single cells”, the inhibition at 30 µM is 7.27%. Further, the “inhibition … single cells” value (C11 100 uM, Supp. Fig 5D) is 29.7468 and 24.8826 and 21.3974 and 29.1115. Also, the inhibition at 100 µM (C11 100 uM, Supp. Fig 5D, read-out: inhibition of acid-evoked current, single cells) came out at 29.4%. Also, the “inhibition … single cells” value (C11 200 uM, Supp. Fig 5D) is on record as 48.5849. In addition, the inhibition at 200 µM (C11 200 uM, Supp. Fig 5D, read-out: inhibition of acid-evoked current, single cells) turned out to be 42.1%. The “inhibition … single cells” value (C11 300 uM, Supp. Fig 5D) is 63.41 and 66.778 and 78.1609 and 62.1622 and 62.7854 and 80.0142 and 64.4878. For the same molecule, the inhibition at 300 µM (C11 300 uM, Supp. Fig 5D, read-out: inhibition of acid-evoked current, single cells) was 71.5%. Under “best-fit, Supp. Fig 5D”, the HillSlope turned out to be 1.566 and the LogAbsoluteIC50 is 2.279. The pIC50 (best-fit, Top 100, Bottom 0, Supp. Fig 5D, read-out: AbsoluteIC50) was 3.72. Besides, for the setting “pH 5.5, read-out: IC50”, the pIC50 was 3.72.
